According to patent US12678413B2, “Compositions containing pterosin compound and derivatives thereof active ingredients for prevention or treatment of degenerative brain diseases” (priority 2017, dated 2026):

The molecules below were run against T1, BACE1 (β-secretase, recombinant human enzyme) (Homo sapiens, UniProt P56817) (assay: In vitro BACE1 activity assay (FRET kit)). Conditions: compounds in 10% DMSO, concentrations up to 125 μM.
T1 construct: purchased Pan Vera Co. (Madison, WI, USA)
Assay type: biochemical
Excerpt: BACE1 (beta-secretase) FRET assay kit was purchased from Pan Vera Co. (Madison, WI, USA). All the chemicals and solvents used in column chromatography were of reagent grade and were used as received without further purification.
A BACE1 fluorescence resonance energy transfer (FRET) assay kit (β-secretase, recombinant human enzyme) was purchased from Pan Vera Co. (Madison, WI, USA).
BACE1 is an enzyme promotive of the production of β-amyloid, which destroys neurons. In order to examine the effects on the compounds of Table 1 on the activity of BACE1, IC(inhibition concentrations)50 values were determined by measuring BACE1 activity in vitro according to Experimental Methods.

T1 sequence (P56817 46-501): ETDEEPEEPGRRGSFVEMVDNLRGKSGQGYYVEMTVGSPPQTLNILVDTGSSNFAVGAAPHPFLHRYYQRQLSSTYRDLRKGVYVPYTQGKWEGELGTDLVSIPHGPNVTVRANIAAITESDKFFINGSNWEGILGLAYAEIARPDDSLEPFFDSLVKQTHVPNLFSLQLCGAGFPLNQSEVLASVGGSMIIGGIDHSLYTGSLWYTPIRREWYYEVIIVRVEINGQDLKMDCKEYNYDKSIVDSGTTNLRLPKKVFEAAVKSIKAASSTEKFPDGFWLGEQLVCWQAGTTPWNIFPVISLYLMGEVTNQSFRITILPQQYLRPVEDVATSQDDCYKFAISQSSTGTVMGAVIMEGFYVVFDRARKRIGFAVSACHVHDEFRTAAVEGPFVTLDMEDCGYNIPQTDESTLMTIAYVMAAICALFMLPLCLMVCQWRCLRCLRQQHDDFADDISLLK

SMILES | IC50 [µM]
Cc1cc2c(c(C)c1CCO[C@@H]1OC(CO)[C@@H](O)C(O)C1O)C(=O)[C@](C)(O)C2 (single isomer, unassigned; (-)) [Compound 18, (−)-pteroside N] | 30.6 ± 1.8
Cc1cc2c(c(C)c1CCO[C@@H]1OC(CO)[C@@H](O)[C@H](O)C1O)C(=O)[C@](C)(CO)C2 (stereo partly drawn) [Compound 12, (2S)-pteroside A] | 84.6 ± 6
Cc1cc2c(c(C)c1CCO[C@@H]1OC(CO)[C@@H](O)[C@H](O)C1O)C(=O)[C@@H](C)[C@H]2O (stereo partly drawn) [Compound 15, (2S,3R)-pteroside C] | 28.9 ± 2.2
Cc1c(CCO[C@@H]2OC(CO)[C@@H](O)[C@H](O)C2O)c(CO)cc2c1C(=O)[C@@H](C)C2 (stereo partly drawn) [Compound 19, (2S)-pteroside P] | 81.3 ± 3.9
Cc1cc2c(c(C)c1CCO[C@@H]1OC(CO)[C@@H](O)[C@H](O)C1O)C(=O)C(C)(C)C2 (stereo partly drawn) [Compound 20, pteroside Z] | 60 ± 4.3

The molecules below were run on B16F10 cells (assay: MTT cytotoxicity assay, cancerous cell line B16F10). Conditions: B16F10 mouse melanoma, 48 hours incubation.
Assay type: cell-based
Protocol: (§1) The normal cell line NIH3T3 (mouse embryo fibroblast cell-line) and the cancerous cell line B16F10 (mouse melanoma cell-line) were separately grown in 96-well plates and incubated for 48 hours with predetermined concentrations of each of the compounds. After additional incubation with MTT, absorbance at 550 nm was read using a microplate reader. Absorbance is an index accounting for a number of viable cells and was used to calculate cell proliferation rates according to the following formula. All experiments were conducted three times for reproducibility. Cell proliferation rate (%)=OD550(sample)/OD550(control)
(§2) Then, LD50 (Lethal Dose 50) values were calculated on the basis of changes in the cell proliferation rate.

SMILES | LD50 Cancer cell B16F10
Cc1cc2c(c(C)c1CCO[C@@H]1OC(CO)[C@@H](O)C(O)C1O)C(=O)[C@](C)(O)C2 (single isomer, unassigned; (-)) [Compound 18, (−)-pteroside N] | >5,000 μM
Cc1cc2c(c(C)c1CCO[C@@H]1OC(CO)[C@@H](O)[C@H](O)C1O)C(=O)[C@](C)(CO)C2 (stereo partly drawn) [Compound 12, (2S)-pteroside A] | >5,000 μM
Cc1cc2c(c(C)c1CCO[C@@H]1OC(CO)[C@@H](O)[C@H](O)C1O)C(=O)[C@@H](C)[C@H]2O (stereo partly drawn) [Compound 15, (2S,3R)-pteroside C] | >5,000 μM
Cc1c(CCO[C@@H]2OC(CO)[C@@H](O)[C@H](O)C2O)c(CO)cc2c1C(=O)[C@@H](C)C2 (stereo partly drawn) [Compound 19, (2S)-pteroside P] | >5,000 μM
Cc1cc2c(c(C)c1CCO[C@@H]1OC(CO)[C@@H](O)[C@H](O)C1O)C(=O)C(C)(C)C2 (stereo partly drawn) [Compound 20, pteroside Z] | >5,000 μM

Each molecule was assayed against T2, acetylcholinesterase (AChE) (Electrophorus electricus, UniProt O42275) (assay: In vitro cholinesterase activity assay (Ellman), AChE). Conditions: concentrations up to 125 μM; Mean ± SEM; read-out: IC50 Acetylcholine Esterase Mean ± SEM.
T2 construct: purchased Sigma-Aldrich Co. (St. Louis, MO, USA)
T2 sequence (O42275 24-633): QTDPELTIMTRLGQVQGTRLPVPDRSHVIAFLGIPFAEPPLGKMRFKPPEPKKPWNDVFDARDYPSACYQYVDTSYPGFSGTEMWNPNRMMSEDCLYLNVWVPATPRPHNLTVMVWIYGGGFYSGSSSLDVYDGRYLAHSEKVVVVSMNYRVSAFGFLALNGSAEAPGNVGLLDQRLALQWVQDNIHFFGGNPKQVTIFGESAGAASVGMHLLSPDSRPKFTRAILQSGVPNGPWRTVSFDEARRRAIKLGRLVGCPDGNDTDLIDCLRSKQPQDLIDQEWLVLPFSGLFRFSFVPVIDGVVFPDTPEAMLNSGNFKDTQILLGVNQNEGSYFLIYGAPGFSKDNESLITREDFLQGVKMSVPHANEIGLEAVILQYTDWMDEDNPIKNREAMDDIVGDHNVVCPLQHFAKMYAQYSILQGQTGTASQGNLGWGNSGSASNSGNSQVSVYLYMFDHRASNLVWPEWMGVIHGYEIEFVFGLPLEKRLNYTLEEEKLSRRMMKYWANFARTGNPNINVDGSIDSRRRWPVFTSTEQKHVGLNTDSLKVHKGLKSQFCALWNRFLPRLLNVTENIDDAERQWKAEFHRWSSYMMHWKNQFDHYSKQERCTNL
Assay type: biochemical
Protocol: (§3) The reaction started with the addition of 10 μL of DTNB and 10 μL of Ach or Bch.
(§4) Briefly, the basis for this assay is the hydrolysis of acetylthiocholine by acetylcholinesterase, producing thiocholine that reacts with DTNB. […] Degrees of inhibition were calculated according to […] wherein E and S represent enzyme activities in the presence and absence of a test sample, respectively.
(§5) The compounds of Table 1 were evaluated for anti-Alzheimer activity. In this regard, inhibitory activity against AChE (acetylcholinesterase) and BChE (butyrylcholinesterase), which lyse acetylcholine in the central nervous system, was measured according to the Experimental Method to calculate IC(inhibition concentrations)50 values.

SMILES | IC50 [µM]
Cc1cc2c(c(C)c1CCO[C@@H]1OC(CO)[C@@H](O)C(O)C1O)C(=O)[C@](C)(O)C2 (single isomer, unassigned; (-)) [Compound 18, (−)-pteroside N] | 4.47 ± 0.29
Cc1cc2c(c(C)c1CCO[C@@H]1OC(CO)[C@@H](O)[C@H](O)C1O)C(=O)[C@](C)(CO)C2 (stereo partly drawn) [Compound 12, (2S)-pteroside A] | 110 ± 3
Cc1c(CCO[C@@H]2OC(CO)[C@@H](O)[C@H](O)C2O)c(CO)cc2c1C(=O)[C@@H](C)C2 (stereo partly drawn) [Compound 19, (2S)-pteroside P] | 57.5 ± 3.2
Cc1cc2c(c(C)c1CCO[C@@H]1OC(CO)[C@@H](O)[C@H](O)C1O)C(=O)C(C)(C)C2 (stereo partly drawn) [Compound 20, pteroside Z] | 22.4 ± 2.2

Same assay, conditions: ratio of IC50 BChE/AChE

SMILES | SI: selectivity index (BChE/AChE)
Cc1cc2c(c(C)c1CCO[C@@H]1OC(CO)[C@@H](O)C(O)C1O)C(=O)[C@](C)(O)C2 (single isomer, unassigned; (-)) [Compound 18, (−)-pteroside N] | 1.7
Cc1cc2c(c(C)c1CCO[C@@H]1OC(CO)[C@@H](O)[C@H](O)C1O)C(=O)[C@](C)(CO)C2 (stereo partly drawn) [Compound 12, (2S)-pteroside A] | 0.17
Cc1cc2c(c(C)c1CCO[C@@H]1OC(CO)[C@@H](O)[C@H](O)C1O)C(=O)[C@@H](C)[C@H]2O (stereo partly drawn) [Compound 15, (2S,3R)-pteroside C] | 1.4
Cc1c(CCO[C@@H]2OC(CO)[C@@H](O)[C@H](O)C2O)c(CO)cc2c1C(=O)[C@@H](C)C2 (stereo partly drawn) [Compound 19, (2S)-pteroside P] | 0.57
Cc1cc2c(c(C)c1CCO[C@@H]1OC(CO)[C@@H](O)[C@H](O)C1O)C(=O)C(C)(C)C2 (stereo partly drawn) [Compound 20, pteroside Z] | 0.24

Each molecule was assayed on NIH3T3 cells (assay: MTT cytotoxicity assay, normal cell line NIH3T3). Conditions: NIH3T3 mouse embryo fibroblast, 48 hours incubation.
Assay type: cell-based
Protocol: as §1, §2

SMILES | LD50 Normal cell NIH3T3
Cc1cc2c(c(C)c1CCO[C@@H]1OC(CO)[C@@H](O)C(O)C1O)C(=O)[C@](C)(O)C2 (single isomer, unassigned; (-)) [Compound 18, (−)-pteroside N] | >5,000 μM
Cc1cc2c(c(C)c1CCO[C@@H]1OC(CO)[C@@H](O)[C@H](O)C1O)C(=O)[C@](C)(CO)C2 (stereo partly drawn) [Compound 12, (2S)-pteroside A] | >5,000 μM
Cc1cc2c(c(C)c1CCO[C@@H]1OC(CO)[C@@H](O)[C@H](O)C1O)C(=O)[C@@H](C)[C@H]2O (stereo partly drawn) [Compound 15, (2S,3R)-pteroside C] | >5,000 μM
Cc1c(CCO[C@@H]2OC(CO)[C@@H](O)[C@H](O)C2O)c(CO)cc2c1C(=O)[C@@H](C)C2 (stereo partly drawn) [Compound 19, (2S)-pteroside P] | >5,000 μM
Cc1cc2c(c(C)c1CCO[C@@H]1OC(CO)[C@@H](O)[C@H](O)C1O)C(=O)C(C)(C)C2 (stereo partly drawn) [Compound 20, pteroside Z] | >5,000 μM

Each molecule was assayed against T3, butyrylcholinesterase (BChE) (Equus caballus, UniProt P81908) (assay: In vitro cholinesterase activity assay (Ellman), BChE). Conditions: concentrations up to 125 μM; Mean ± SEM; read-out: IC50 Butyrylcholine esterase Mean ± SEM.
T3 construct: horse serum butyrylcholinesterase (BChE, EC3.1.1.8); purchased Sigma-Aldrich Co. (St. Louis, MO, USA); host or cells: horse serum
T3 sequence (P81908 whole entry): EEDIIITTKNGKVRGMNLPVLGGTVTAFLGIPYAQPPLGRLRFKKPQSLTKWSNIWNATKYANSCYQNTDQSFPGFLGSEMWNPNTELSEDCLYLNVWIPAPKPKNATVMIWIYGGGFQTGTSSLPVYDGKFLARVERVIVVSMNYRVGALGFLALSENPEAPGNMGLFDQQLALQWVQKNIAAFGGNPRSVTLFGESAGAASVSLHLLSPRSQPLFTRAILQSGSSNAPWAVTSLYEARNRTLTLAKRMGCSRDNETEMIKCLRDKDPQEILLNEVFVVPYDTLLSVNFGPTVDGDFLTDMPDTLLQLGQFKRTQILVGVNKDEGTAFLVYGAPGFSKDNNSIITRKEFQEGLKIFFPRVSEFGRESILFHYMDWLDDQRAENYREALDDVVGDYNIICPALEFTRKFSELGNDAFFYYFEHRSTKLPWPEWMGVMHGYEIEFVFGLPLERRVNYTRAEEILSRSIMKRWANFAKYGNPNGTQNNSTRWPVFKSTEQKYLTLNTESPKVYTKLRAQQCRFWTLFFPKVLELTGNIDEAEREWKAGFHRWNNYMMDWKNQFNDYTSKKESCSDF
Assay type: biochemical
Protocol: as §3, §4, §5

SMILES | IC50 [µM]
Cc1cc2c(c(C)c1CCO[C@@H]1OC(CO)[C@@H](O)C(O)C1O)C(=O)[C@](C)(O)C2 (single isomer, unassigned; (-)) [Compound 18, (−)-pteroside N] | 7.39 ± 0.99
Cc1cc2c(c(C)c1CCO[C@@H]1OC(CO)[C@@H](O)[C@H](O)C1O)C(=O)[C@](C)(CO)C2 (stereo partly drawn) [Compound 12, (2S)-pteroside A] | 19.4 ± 0.22
Cc1c(CCO[C@@H]2OC(CO)[C@@H](O)[C@H](O)C2O)c(CO)cc2c1C(=O)[C@@H](C)C2 (stereo partly drawn) [Compound 19, (2S)-pteroside P] | 33.2 ± 3
